Assays:
Assay type in all cases: cell-based, Human
[1] = test system: NUGC-3 (gastric cancer); assay: Test for inhibition of tumor cell growth (SRB), NUGC-3; conditions: 48 hours, SRB staining; for GI50: Homo sapiens, NUGC-3
Description: (§1) Human tumor cell lines, PC-3 (prostate cancer, ATCC, USA), MBA-MB-231 (breast cancer, ATCC, USA), ACHN (kidney cancer, ATCC, USA), and NUGC-3 (gastric cancer, ATCC, USA) were cultured in RPMI 1640 media containing 10% fetal bovine serum (FBS).
(§2) In order to measure anticancer activity, a suitable concentration of cells in RPMI 1640 media containing 5% fetal bovine serum (about 5×10^4 cells/□) was aliquotted in 96-well plates, and cultured in 5% CO2 at 37° C. On day one after aliquoting the cells, before the cells were treated with the compounds, in order to determine their concentration, 50[…] of 50% trichloroacetic acid was added to each well of time zero (T0) plate, and cells were fixed to determine zero point. The cells treated with the compounds were fixed on each well having 50[…] of 50% trichloroacetic acid after 48 hours. The final concentrations of the test compounds were 0.01, 0.03, 0.1, 0.3, and 1[…]/□. The fixed plate was washed with water and dried, and then 100[…] of 0.4% sulphorhodamine B (SRB) dissolved in 0.1% acetic acid was added to the each well to stain the cells. The plate was allowed to stand for 30 minutes, and then washed with 0.1% acetic acid. Then, the plate was dried at room temperature, and treated with 10 mM tris base (pH 10.5) to dissolve staining reagent. An absorbance measured at 540 nm was calculated as a percentage of the control group, and then the concentration of the compound that inhibited tumor cell growth (GI50(□/□)) by 50% was determined.

[2] = test system: MBA-MB-231 (breast cancer); assay: Test for inhibition of tumor cell growth (SRB), MBA-MB-231; conditions: 48 hours, SRB staining; for GI50: Homo sapiens
Description: as §1, §2

[3] = test system: PC-3 (prostate cancer); assay: Test for inhibition of tumor cell growth (SRB), PC-3; conditions: 48 hours, SRB staining; for GI50: Homo sapiens, read-out: GI50 PC-3 (prostate ancer)
Description: as §1, §2

[4] = test system: ACHN (kidney cancer); assay: Test for inhibition of tumor cell growth (SRB), ACHN; conditions: 48 hours, SRB staining; for GI50: Homo sapiens, ACHN
Description: as §1, §2

Row | Compound | GI50 [1] | GI50 [2] | GI50 [3] | GI50 [4] | GI50 NUGC-3 (gastric cancer) [1] | GI50 MBA-MB-231 (breast cancer) [2] | GI50 PC-3 (prostate ancer) [3] | GI50 ACHN (kidney cancer) [4]
1 | CCCCCCCCS(=O)(=O)N1CC[N+](C)(Cc2ccccc2)CC1 [Example 62, 1-benzyl-1-methyl-4-(octane-1-sulfonyl)piperazin-1-ium bromide] | > 10 µg/mL | > 10 µg/mL | > 10 µg/mL | > 10 µg/mL |  |  |  | 
2 | CCCCCCCCCCCCCCCCCCCCCC(=O)N1CC[N+](C)(CC)CC1 [Example 34, 4-docosanoyl-1-ethyl-1-methylpiperazin-1-ium iodide] | 1.22 µg/mL | 2.01 µg/mL | 0.85 µg/mL | 1.9 µg/mL |  |  |  | 
3 | CCCCCCCCCCCCS(=O)(=O)N1CC[N+](C)(Cc2ccc(C)cc2)CC1 [Example 90, 4-(dodecane-1-sulfonyl)-1-methyl-1-(4-methylbenzyl)piperazin-1-ium bromide] | 1.98 µg/mL | 2.56 µg/mL | 1.57 µg/mL | 3.22 µg/mL |  |  |  | 
4 | C=CC[N+]1(C)CCN(S(=O)(=O)CCCCCCCCCC)CC1 [Example 77, 1-allyl-4-(decane-1-sulfonyl)-1-methyl-piperazin-1-ium bromide] | 1.55 µg/mL | > 10 µg/mL | 0.83 µg/mL | 3.47 µg/mL |  |  |  | 
5 | CCCCCCCCCCCCCCCCCCCC(=O)N1CC[N+](C)(Cc2ccccc2)CC1 [Example 32, 1-benzyl-4-icosanoyl-1-methylpiperazin-1-ium bromide] | 1.1 µg/mL | 1.66 µg/mL | 0.59 µg/mL | 1.89 µg/mL |  |  |  | 
6 | CCCCCCCCCC(=O)N1CC[N+](C)(CC)CC1 [Example 12, 4-decanoyl-1-ethyl-1-methylpiperazin-1-ium iodide] | > 10 µg/mL | > 10 µg/mL | > 10 µg/mL | > 10 µg/mL |  |  |  | 
7 | CCCCCCCCCCCCS(=O)(=O)N1CC[N+](C)(Cc2ccccc2)CC1 [Example 81, 1-benzyl-4-(dodecane-1-sulfonyl)-1-methyl-piperazin-1-ium bromide] | 0.58 µg/mL | 1.49 µg/mL | 0.61 µg/mL | 1.48 µg/mL |  |  |  | 
8 | CCCCCCCC(=O)N1CC[N+](C)(Cc2ccccc2)CC1.[Br-] [Example 3, 1-benzyl-1-methyl-4-octanoyl-piperazin-1-ium bromide] | > 10 µg/mL | > 10 µg/mL | > 10 µg/mL | > 10 µg/mL |  |  |  | 
9 | CCCCCCCCCCS(=O)(=O)N1CC[N+](C)(CC)CC1 [Example 78, 4-(decane-1-sulfonyl)-1-ethyl-1-methyl-piperazin-1-ium iodide] | 1.81 µg/mL | > 10 µg/mL | 1.06 µg/mL | 4.15 µg/mL |  |  |  | 
10 | C=CC[N+]1(CC)CCN(C(=O)CCCCCCCCCCCCCCCCCCCCC)CC1 [Example 38, 1-allyl-4-docosanoyl-1-ethylpiperazin-1-ium bromide] | 1.54 µg/mL | 2.53 µg/mL | 1.47 µg/mL | 3.38 µg/mL |  |  |  | 
11 | CCCCCCCCCCCCCCS(=O)(=O)N1CC[N+](CC)(Cc2ccccc2)CC1 [Example 113, 1-benzyl-1-ethyl-4-(tetradecane-1-sulfonyl)piperazin-1-ium bromide] | 1.22 µg/mL | 1.23 µg/mL | 0.41 µg/mL | 1.05 µg/mL |  |  |  | 
12 | CCCCCCCCCS(=O)(=O)N1CC[N+](C)(CC)CC1 [Example 99, 1-ethyl-1-methyl-4-(nonane-1-sulfonyl)piperazin-1-ium iodide] | > 10 µg/mL | > 10 µg/mL | > 10 µg/mL | > 10 µg/mL |  |  |  | 
13 | CCCCCCCCCCCS(=O)(=O)N1CC[N+](CC)(Cc2ccccc2)CC1 [Example 64, 1-benzyl-1-ethyl-4-(undecane-1-sulfonyl)piperazin-1-ium bromide] | 0.36 µg/mL | 2.07 µg/mL | 0.67 µg/mL | 1.43 µg/mL |  |  |  | 
14 | CCCCCCCCCCCCCCCCCCS(=O)(=O)N1CC[N+](CC)(Cc2ccc(C(C)(C)C)cc2)CC1 [Example 114, 1-(4-t-butylbenzyl)-1-ethyl-4-(octadecane-1-sulfonyl)piperazin-1-ium bromide] | 3.16 µg/mL | 2.24 µg/mL | 2.01 µg/mL | 2.32 µg/mL |  |  |  | 
15 | C=CC[N+]1(CC)CCN(S(=O)(=O)CCCCCCCCC)CC1 [Example 101, 1-allyl-1-ethyl-4-(nonane-1-sulfonyl)piperazin-1-ium bromide] | 3.28 µg/mL | > 10 µg/mL | 2.34 µg/mL | > 10 µg/mL |  |  |  | 
16 | 1-ethyl-1-(3-nitrobenzyl)-4-tetradecanoylpiperazin-1-him bromide [Example 56] |  |  |  |  | 1.22 µg/mL | 1.13 µg/mL | 0.52 µg/mL | 1.93 µg/mL

Row | Compound | GI50 [1] | GI50 [2] | GI50 [3] | GI50 [4] | GI50 NUGC-3 (gastric cancer) [1] | GI50 MBA-MB-231 (breast cancer) [2] | GI50 PC-3 (prostate ancer) [3] | GI50 ACHN (kidney cancer) [4]
17 | CCCCCCCCCCCCCCCCCC(=O)N1CC[N+](C)(CC)CC1 [Example 27, 1-ethyl-1-methyl-4-octadecanoyl-piperazin-1-ium iodide] | 0.67 µg/mL | 1.43 µg/mL | 0.41 µg/mL | 1.36 µg/mL |  |  |  | 
18 | CCCCCCCCCCS(=O)(=O)N1CC[N+](C)(Cc2ccc(C)cc2)CC1 [Example 107, 4-(decane-1-sulfonyl)-1-methyl-1-(4-methylbenzyl)piperazin-1-ium bromide] | 2.72 µg/mL | > 10 µg/mL | 1.05 µg/mL | > 10 µg/mL |  |  |  | 
19 | C=CC[N+]1(C)CCN(S(=O)(=O)CCCCCCCCCCCC)CC1 [Example 82, 1-allyl-4-(dodecane-1-sulfonyl)-1-methyl-piperazin-1-ium bromide] | 0.75 µg/mL | 1.4 µg/mL | 0.71 µg/mL | 0.86 µg/mL |  |  |  | 
20 | CCCCCCCCCCCCCCS(=O)(=O)N1CC[N+](C)(CC)CC1 [Example 95, 1-ethyl-1-methyl-4-(tetradecane-1-sulfonyl)piperazin-1-ium iodide] | 2.24 µg/mL | 0.64 µg/mL | 0.35 µg/mL | 0.46 µg/mL |  |  |  | 
21 | C=CCCC[N+]1(C)CCN(C(=O)CCCCCCCCCCCCCCC)CC1.[Br-] [Example 19, 4-hexadecanoyl-1-methyl-1-pent-4-enyl-piperazin-1-ium bromide] | 0.63 µg/mL | 1.7 µg/mL | 0.55 µg/mL | 1.69 µg/mL |  |  |  | 
22 | CCCCCCCCCCCC(=O)N1CCC[N+](C)(C)CC1 [Example 117, 4-dodecanoyl-1,1-dimethyl-1,4-diazepan-1-ium iodide] | 0.6 µg/mL | 2.68 µg/mL | 0.5 µg/mL | 1.07 µg/mL |  |  |  | 
23 | CCCCCCCCCS(=O)(=O)N1CC[N+](C)(Cc2ccccc2)CC1 [Example 103, 1-benzyl-1-methyl-4-(nonane-1-sulfonyl)piperazin-1-ium bromide] | 3.45 µg/mL | > 10 µg/mL | 1.25 µg/mL | > 10 µg/mL |  |  |  | 
24 | CCCCCCCCCCCCCCCC(=O)N1CCC[N+](C)(Cc2ccc(F)cc2)CC1.[Br-] (stereo not shown) [Example 121, 1-(4-fluorobenzyl)-1-methyl-4-palmitoyl-1,4-diazepan-1-him bromide] |  |  |  |  | 0.63 µg/mL | 0.83 µg/mL | 0.46 µg/mL | 1.09 µg/mL
25 | CCCCCCCCCCCCCCCCCC(=O)N1CC[N+](CC)(Cc2ccc(F)cc2)CC1 [Example 48, 1-ethyl-1-(4-fluorobenzyl)-4-stearoylpiperazin-1-ium bromide] | 1.19 µg/mL | 1.49 µg/mL | 0.68 µg/mL | 1.43 µg/mL |  |  |  | 
26 | C=CC[N+]1(CC)CCN(S(=O)(=O)CCCCCCCC)CC1 [Example 60, 1-allyl-1-ethyl-4-(octane-1-sulfonyl)piperazin-1-ium bromide] | > 10 µg/mL | > 10 µg/mL | > 10 µg/mL | > 10 µg/mL |  |  |  | 
27 | C=CC[N+]1(CC)CCN(S(=O)(=O)CCCCCCCCCC)CC1 [Example 80, 1-allyl-4-(decane-1-sulfonyl)-1-ethyl-piperazin-1-ium bromide] | 0.89 µg/mL | > 10 µg/mL | 0.85 µg/mL | 3.07 µg/mL |  |  |  | 
28 | CCCCCCCCCCCCCCCC(=O)N1CC[N+](CC)(Cc2cccc([N+](=O)[O-])c2)CC1 [Example 47, 1-ethyl-1-(3-nitrobenzyl)-4-palmitoylpiperazin-1-ium bromide] | 3.64 µg/mL | > 10 µg/mL | 4.57 µg/mL | 5.13 µg/mL |  |  |  | 
29 | C=CC[N+]1(C)CCN(C(=O)CCCCCCCCCCCCC)CC1 [Example 13, 1-allyl-1-methyl-4-tetradecanoyl-piperazin-1-ium bromide] | 0.5 µg/mL | 1.29 µg/mL | 0.3 µg/mL | > 10 µg/mL |  |  |  | 
30 | CCCCCCCCCCCCS(=O)(=O)N1CC[N+](CC)(Cc2ccccc2)CC1 [Example 84, 1-benzyl-4-(dodecane-1-sulfonyl)-1-ethyl-piperazin-1-ium bromide] | 0.75 µg/mL | 1.35 µg/mL | 0.74 µg/mL | 1.12 µg/mL |  |  |  | 
31 | C=CC[N+]1(C)CCN(C(=O)CCCCCCCCCCCCCCCCCCC)CC1 [Example 33, 1-allyl-4-icosanoyl-1-methylpiperazin-1-ium bromide] | 3.45 µg/mL | > 10 µg/mL | 4.29 µg/mL | > 10 µg/mL |  |  |  | 

Reference: patent US20100144708A1, “HETEROCYCLIC COMPOUNDS CONTAINING NITROGEN ATOMS OR PHARMACEUTICALLY ACCEPTABLE SALTS THEREOF, PROCESS FOR THE PREPARATION THEREOF AND PHARMACEUTICAL COMPOSITION COMPRISING THE SAME FOR TREATMENT OF CANCER” (Korea Research Instititute of Bioscience and Biotechnology, priority 2006, published 2010)
